Data reported in patent publication US10385057B2, “Pyrazole compounds and methods of making and using same” (Lundbeck La Jolla Research Center, Inc., priority 2015, dated 2019).

Legend:
[1] = target: T1, FAAH (Mus musculus, UniProt O08914); assay: In vitro competitive activity-based protein profiling, mouse FAAH; type: biochemical; conditions: for inhibition at 1 µM: read-out: FAAH % inh. 1 μM (mouse)
T1 construct: mouse brain membrane fraction or cell lysates for mouse assays; from tissue
T1 sequence (O08914 1-579): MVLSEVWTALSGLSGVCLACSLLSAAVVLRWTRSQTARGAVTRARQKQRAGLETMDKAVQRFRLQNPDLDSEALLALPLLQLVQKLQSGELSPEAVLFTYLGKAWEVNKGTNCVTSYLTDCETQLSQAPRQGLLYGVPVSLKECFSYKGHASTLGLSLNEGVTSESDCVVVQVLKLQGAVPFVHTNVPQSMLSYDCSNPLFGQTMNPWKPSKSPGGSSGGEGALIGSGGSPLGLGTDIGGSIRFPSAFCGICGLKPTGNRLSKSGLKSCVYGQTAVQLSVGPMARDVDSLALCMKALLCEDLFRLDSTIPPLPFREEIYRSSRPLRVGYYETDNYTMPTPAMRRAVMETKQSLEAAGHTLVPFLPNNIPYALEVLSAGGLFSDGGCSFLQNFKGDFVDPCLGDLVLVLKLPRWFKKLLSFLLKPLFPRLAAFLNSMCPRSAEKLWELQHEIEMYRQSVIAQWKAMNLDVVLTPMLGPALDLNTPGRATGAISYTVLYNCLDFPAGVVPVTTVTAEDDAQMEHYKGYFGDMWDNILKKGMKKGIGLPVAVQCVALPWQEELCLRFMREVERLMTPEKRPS
Outline: (§1)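 Mouse brain membranes or cell lysates (mouse) and human prefrontal cortex or cell membrane fractions (human), 1.0 mg/mL protein, preincubated with inhibitor 30 min at 37 °C, then FP-Rh or HT-01 probe 30 min at 37 °C. SDS-PAGE; MAGL and FAAH activity from in-gel fluorescence band intensity.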

[2] = target: T2, MAGL (Mus musculus, UniProt O35678); assay: In vitro competitive activity-based protein profiling, mouse MAGL; type: biochemical; conditions: for inhibition at 1 µM: read-out: MAGL % inh. 1 μM (mouse)
T2 construct: mouse brain membrane fraction or cell lysates for mouse assays; from tissue
T2 sequence (O35678 1-303): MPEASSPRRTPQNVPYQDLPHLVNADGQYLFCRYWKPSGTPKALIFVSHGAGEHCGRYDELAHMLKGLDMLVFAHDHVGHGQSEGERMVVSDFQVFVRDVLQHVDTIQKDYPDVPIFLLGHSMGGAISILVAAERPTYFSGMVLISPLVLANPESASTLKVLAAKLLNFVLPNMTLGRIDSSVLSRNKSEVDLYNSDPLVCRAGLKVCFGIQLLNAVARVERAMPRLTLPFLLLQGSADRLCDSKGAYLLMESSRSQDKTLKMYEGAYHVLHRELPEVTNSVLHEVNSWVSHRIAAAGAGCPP
Outline: as §1

SMILES | IC50 [1] | inhibition at 1 µM [1] | IC50 [2] | inhibition at 1 µM [2]
CC(=O)N(Cc1ccccc1Cl)[C@@H]1C[C@@H]2CN(C(=O)n3cc(Cl)cn3)C[C@@H]2C1 [Example 62, N-(cis-2-(4-chloro-1H-pyrazole-1-carbonyl)octahydrocyclopenta[c]pyrrol-5-yl)-N-(2-chlorobenzyl)acetamide] | 0.1 to 1 µM | ≥ 75% | 0.1 to 1 µM | ≥ 75%
CC(=O)N(Cc1ccccc1Cl)[C@H]1C[C@@H]2CN(C(=O)n3cc(Cl)cn3)C[C@@H]2C1 [Example 63, N-(trans-2-(4-chloro-1H-pyrazole-1-carbonyl)octahydrocyclopenta[c]pyrrol-5-yl)-N-(2-chlorobenzyl)acetamide] |  | 25 to 50% |  | ≥ 75%
CC(=O)N(Cc1cccc(Cl)c1)[C@H]1C[C@@H]2CN(C(=O)n3cc(Cl)cn3)C[C@@H]2C1 [Example 74, N-(trans-2-(4-chloro-1H-pyrazole-1-carbonyl)octahydrocyclopenta[c]pyrrol-5-yl)-N-(3-chlorobenzyl)acetamide] |  | ≥ 75% |  | ≥ 75%
CN(Cc1ccc(C(F)(F)F)cc1)[C@@H]1C[C@@H]2CN(C(=O)n3cc(Cl)cn3)C[C@@H]2C1 [Example 76, (4-chloro-1H-pyrazol-1-yl)(cis-5-(methyl(4-(trifluoromethyl)benzyl)amino)hexahydrocyclopenta[c]pyrrol-2(1H)-yl)methanone] | ≤ 0.1 µM | ≥ 75% | ≤ 0.1 µM | ≥ 75%
CN(Cc1ccc(N2CCOCC2)cc1)[C@@H]1C[C@@H]2CN(C(=O)n3cc(Cl)cn3)C[C@@H]2C1 [Example 77, (4-chloro-1H-pyrazol-1-yl)(cis-5-(methyl(4-morpholinobenzyl)amino)hexahydrocyclopenta[c]pyrrol-2(1H)-yl)methanone] | 0.1 to 1 µM | ≥ 75% | 1 to 10 µM | 50 to 75%
CN(Cc1ccc(N2CCOCC2)cc1)[C@H]1C[C@@H]2CN(C(=O)n3cc(Cl)cn3)C[C@@H]2C1 [Example 79, (4-chloro-1H-pyrazol-1-yl)(trans-5-(methyl(4-morpholinobenzyl)amino)hexahydrocyclopenta[c]pyrrol-2(1H)-yl)methanone] |  | ≥ 75% |  | 50 to 75%
CN(Cc1cccc(C(F)(F)F)c1)[C@@H]1C[C@@H]2CN(C(=O)n3cc(Cl)cn3)C[C@@H]2C1 [Example 80, (4-chloro-1H-pyrazol-1-yl)(cis-5-(methyl(3-(trifluoromethyl)benzyl)amino)hexahydrocyclopenta[c]pyrrol-2(1H)-yl)methanone] | ≤ 0.1 µM | ≥ 75% | ≤ 0.1 µM | ≥ 75%
CN(Cc1cccc(N2CCOCC2)c1)[C@@H]1C[C@@H]2CN(C(=O)n3cc(Cl)cn3)C[C@@H]2C1 [Example 81, (4-chloro-1H-pyrazol-1-yl)(cis-5-(methyl(3-morpholinobenzyl)amino)hexahydrocyclopenta[c]pyrrol-2(1H)-yl)methanone] | ≤ 0.1 µM | ≥ 75% | 1 to 10 µM | 25 to 50%
CN(Cc1cccc(N2CCOCC2)c1)[C@H]1C[C@@H]2CN(C(=O)n3cc(Cl)cn3)C[C@@H]2C1 [Example 82, (4-chloro-1H-pyrazol-1-yl)(trans-5-(methyl(3-morpholinobenzyl)amino)hexahydrocyclopenta[c]pyrrol-2(1H)-yl)methanone] | 0.1 to 1 µM | ≥ 75% | 0.1 to 1 µM | ≥ 75%

Continued, values first:

IC50 [1] | inhibition at 1 µM [1] | IC50 [2] | inhibition at 1 µM [2] | SMILES
≤ 0.1 µM | ≥ 75% | ≤ 0.1 µM | ≥ 75% | O=C(N1C[C@H]2C[C@H](NCc3ccccc3Cl)C[C@H]2C1)n1cc(Cl)cn1 [Example 64, (4-chloro-1H-pyrazol-1-yl)(trans-5-((2-chlorobenzyl)amino)hexahydrocyclopenta[c]pyrrol-2(1H)-yl)methanone]
≤ 0.1 µM | ≥ 75% | ≤ 0.1 µM | ≥ 75% | CN(Cc1cccc(Cl)c1)[C@@H]1C[C@@H]2CN(C(=O)n3cc(Cl)cn3)C[C@@H]2C1 [Example 65, (4-chloro-1H-pyrazol-1-yl)(cis-5-((3-chlorobenzyl)(methyl)amino)hexahydrocyclopenta[c]pyrrol-2(1H)-yl)methanone]
≤ 0.1 µM | ≥ 75% | 0.1 to 1 µM | ≥ 75% | O=C(N1C[C@H]2C[C@@H](NCc3cccc(Cl)c3)C[C@H]2C1)n1cc(Cl)cn1 [Example 66, (4-chloro-1H-pyrazol-1-yl)(cis-5-((3-chlorobenzyl)amino)hexahydrocyclopenta[c]pyrrol-2(1H)-yl)methanone]
≤ 0.1 µM | ≥ 75% | 0.1 to 1 µM | ≥ 75% | CN(Cc1ccc(Cl)cc1)[C@@H]1C[C@@H]2CN(C(=O)n3cc(Cl)cn3)C[C@@H]2C1 [Example 67, (4-chloro-1H-pyrazol-1-yl)(cis-5-((4-chlorobenzyl)(methyl)amino)hexahydrocyclopenta[c]pyrrol-2(1H)-yl)methanone]
 | ≥ 75% |  | ≥ 75% | CN(Cc1ccc(Cl)cc1)[C@H]1C[C@@H]2CN(C(=O)n3cc(Cl)cn3)C[C@@H]2C1 [Example 68, (4-chloro-1H-pyrazol-1-yl)(trans-5-((4-chlorobenzyl)(methyl)amino)hexahydrocyclopenta[c]pyrrol-2(1H)-yl)methanone]
≤ 0.1 µM | ≥ 75% | ≤ 0.1 µM | ≥ 75% | CC(=O)N(Cc1ccc(Cl)cc1)[C@@H]1C[C@@H]2CN(C(=O)n3cc(Cl)cn3)C[C@@H]2C1 [Example 69, N-(cis-2-(4-chloro-1H-pyrazole-1-carbonyl)octahydrocyclopenta[c]pyrrol-5-yl)-N-(4-chlorobenzyl)acetamide]
 | 50 to 75% |  | ≥ 75% | CC(=O)N(Cc1ccc(Cl)cc1)[C@H]1C[C@@H]2CN(C(=O)n3cc(Cl)cn3)C[C@@H]2C1 [Example 70, N-(trans-2-(4-chloro-1H-pyrazole-1-carbonyl)octahydrocyclopenta[c]pyrrol-5-yl)-N-(4-chlorobenzyl)acetamide]
0.1 to 1 µM | ≥ 75% | 0.1 to 1 µM | ≥ 75% | O=C(N1C[C@H]2C[C@@H](NCc3ccc(Cl)cc3)C[C@H]2C1)n1cc(Cl)cn1 [Example 71, (4-chloro-1H-pyrazol-1-yl)(cis-5-((4-chlorobenzyl)amino)hexahydrocyclopenta[c]pyrrol-2(1H)-yl)methanone]
≤ 0.1 µM | ≥ 75% | ≤ 0.1 µM | ≥ 75% | CN(Cc1cccc(Cl)c1)[C@H]1C[C@@H]2CN(C(=O)n3cc(Cl)cn3)C[C@@H]2C1 [Example 72, (4-chloro-1H-pyrazol-1-yl)(trans-5-((3-chlorobenzyl)(methyl)amino)hexahydrocyclopenta[c]pyrrol-2(1H)-yl)methanone]
≤ 0.1 µM | ≥ 75% | 0.1 to 1 µM | ≥ 75% | O=C(N1C[C@H]2C[C@H](NCc3ccc(Cl)cc3)C[C@H]2C1)n1cc(Cl)cn1 [Example 73, (4-chloro-1H-pyrazol-1-yl)(trans-5-((4-chlorobenzyl)amino)hexahydrocyclopenta[c]pyrrol-2(1H)-yl)methanone]
≤ 0.1 µM | ≥ 75% | ≤ 0.1 µM | ≥ 75% | O=C(N1C[C@H]2C[C@H](NCc3cccc(Cl)c3)C[C@H]2C1)n1cc(Cl)cn1 [Example 75, (4-chloro-1H-pyrazol-1-yl)(trans-5-((3-chlorobenzyl)amino)hexahydrocyclopenta[c]pyrrol-2(1H)-yl)methanone]
≤ 0.1 µM | ≥ 75% | ≤ 0.1 µM | ≥ 75% | CN(Cc1ccc(C(F)(F)F)cc1)[C@H]1C[C@@H]2CN(C(=O)n3cc(Cl)cn3)C[C@@H]2C1 [Example 78, (4-chloro-1H-pyrazol-1-yl)(trans-5-(methyl(4-(trifluoromethyl)benzyl)amino)hexahydrocyclopenta[c]pyrrol-2(1H)-yl)methanone]
